The text below walks through data of US20250303006A1, “BIOCOMPATIBLE ANTISEPTIC COMPOSITION CONTAINING 9-HYDROXYCALABAXANTHONE AND/OR RELATED XANTHONES” (UNIVERSITAT DE LES ILLES BALEARS, priority 2022, published 2025).

Assay [1] concerns S. mutans. The experiment in a line: S. mutans culture and proliferation assay. The note with it: 5 h. Type of assay: cell-based, Streptococcus mutans. As for the experimental part: S. mutans CECT 479 (obtained from The Spanish Type Culture Collection (CECT), University of Valencia) was grown from frozen stocks in BHI broth (Scharlab), at 37° C. under aerobic conditions in an orbital shaker (180 rpm). After overnight incubation, 1 mL of bacterial suspensions were incubated with different concentrations of CHX (0.01, 0.005, 0.003, 0.001, 0.0001%) and HCX (0.003, 0.002, 0.001, 0.0002, 0.00002%) for 5 hours at 37° C. under aerobic conditions in an orbital shaker (180 rpm). Bacterial suspension without treatment served as negative control (C−). The optical density (OD) was measured at 600 nm at 0 h and 5 h to determine bacterial proliferation (PowerWave Ht). The bacterial growth rate (μ) was calculated during the exponential growth phase following the equation ln ODt−ln OD0=μ×(t−t0) (n=3). The live/Dead ratio of bacteria was determined using the LIVE/DEAD BacLight bacterial viability kit (Invitrogen), following the manufacturer's instructions. The assays were carried out in triplicate, with two replicates at each condition (n=3).
The bacteria S. mutans was cultured and treated with different commercial periodontal gels and HA formulated with 0.1%, 0.05%, and 0.01% HCX and aMG for 24 h. The gels were tested at a concentration of 5% (v/v), and the experiment was run like in experiment 8 of section 8.1.

For assay [2], the system named is P. aeruginosa. The experiment in a line: P. aeruginosa culture and proliferation assay. Type of assay: cell-based, Pseudomonas aeruginosa. Particulars: 0.003% HCX, 3 h. As for the experimental part: P. aeruginosa ATCC 27853 was grown from frozen stocks in LB broth (Scharlab), at 37° C. under aerobic conditions in an orbital shaker (180 rpm). After overnight incubation, 1 mL of bacterial suspensions were incubated with different concentrations of CHX (0.01, 0.005, 0.003, 0.001, 0.0001%) and HCX (0.003, 0.002, 0.001, 0.0002, 0.00002%) for 3 hours at 37° C. under aerobic conditions in an orbital shaker (180 rpm). Bacterial suspension without treatment served as negative control (C−). The optical density (OD) was measured at 600 nm at 0 h and 3 h to determine bacterial proliferation (PowerWave Ht). The bacterial growth rate (μ) was calculated during the exponential growth phase following the equation ln ODt−ln OD0=μ×(t−t0) (n=3).

Assay [3] has as its system bacterial plaque biofilm. The experiment in a line: In vitro bacterial plaque biofilm formation from pooled human saliva. It is filed as cell-based. The note with it: 0.05% HCX solution, slides immersed 2 min on days 2 and 3; equal to 0.2% chlorhexidine. As for the experimental part: This is an in vitro study using pooled human saliva as a test substrate to compare the ability of 9-hydroxycalabaxanthone (HCX) versus chlorhexidine (CHX) and control to prevent or reduce plaque biofilm buildup.
Human saliva from different donors was collected and pooled. 15 ml of the pooled saliva supplemented with 0.1% sucrose was pipetted into sterile 40 ml containers and then a glass microscope slide was submerged below 2 cm of saliva in each container and incubated at 37° C. for bacterial biofilm formation. Twice a day the slide was immersed in TSB culture medium. On days 2 and 3, the biofilm was treated with different groups: (1) a solution containing 0.05% 9-hydroxycalabaxanthone (HCX) (n=6), (2) a solution containing 0.2% chlorhexidine (CHX) (n=6), and a solution containing water (C−) (n=6), by immersing the slides for 2 min in the test of the assigned product. […] The removed biofilms were subjected to sonication using three 15 s pulses with a power of 7 W. The homogenized bacterial suspension was used to determine the bacterial viability both by quantification of colony-forming units (CFU) per mL and by LIVE/DEAD assay.
For the Bacterial viability assay, an aliquot (0.1 mL) of the homogenized bacterial suspension was serially diluted and plated on TSB agar. The plates were incubated in 5% CO2 at 37° C. for 48 h, and then the number of CFU/mL was determined. […]

Assay [4] deals with C. acnes. Briefly: C. acnes culture and proliferation assay. Type of assay: cell-based, Cutibacterium acnes. Particulars: 0.0002% HCX, 24 h. As for the experimental part:
C. acnes 5684 (CECT, Valencia, Spain) was grown on Tryptic soy broth (TSB) (Scharlab), supplemented with 0.5 g/I L-Cysteine hydrochloride (Thermo Fisher Scientific), 1.0 mg/I hemin (Thermo Fisher Scientific) and 5.0 mg/I glucose (Scharlab) under anaerobic conditions (10% H2, 10% CO2 and 80% N2) achieved with an Oxoid Anaerogen™ sachet (Thermo Fisher Scientific) at 37° C. for 48 h. After overnight incubation, 1 mL of C. acnes was incubated with different concentrations of CHX (0.01, 0.005, 0.003, 0.001%) and HCX (0.003, 0.002, 0.001, 0.0002%) for 24 hours at 37° C. under anaerobic conditions achieved with an Oxoid Anaerogen™ sachet. Bacterial suspension without treatment served as negative control (C−). The optical density (OD) was measured at 600 nm at 0 h and 24 h to determine bacterial proliferation (PowerWave Ht). The bacterial growth rate (μ) was calculated during the exponential growth phase following the equation ln ODt−ln OD0=μ×(t−t0) (n=4). The live/Dead ratio of bacteria was determined using the LIVE/DEAD BacLight bacterial viability kit (Invitrogen), following the manufacturer's instructions. The assays were carried out in triplicate.

As for `COc1c(O)cc2oc3cc4c(c(O)c3c(=O)c2c1CC=C(C)C)C=CC(C)(C)O4` [HCX, 9-hydroxycalabaxanthone], the bacteria eliminated in assay [1] (0.0002% HCX) is 70%; in assay [1] (0.001% HCX) it was 90%; in assay [2], 32%; in assay [4], 96%. The “plaque biofilm bacteria formation (live/dead ratio, CFU/mL)” value in assay [3] was “reduced plaque biofilm bacteria formation”.
